Data: US10774071B2, “PD-1/PD-L1 inhibitors” (Gilead Sciences, Inc., priority 2018, dated 2020)
Like-named read-outs stand apart in the source and are kept apart here.

Legend:
[1] = target: PD-1/PD-L1 (Homo sapiens (Human), UniProt Q9NZQ7); assay: PD-1/PD-L1 biochemical protein-protein interaction assay (ALPHA); type: binding; details: read-out: IC50 PD-L1-PD1
[2] = target: PD-L1 (Homo sapiens (Human), UniProt Q9NZQ7); assay: PD-L1/PD-L1 dimerization biochemical protein-protein interaction assay (ALPHA); type: binding; details: read-out: AC50 PDL1 Dimer 1 nM
[3] = target: FFA1 (h) (GRP40) (Homo sapiens (Human), UniProt O14842); assay: GPR40 functional assay, agonist effect (intracellular Ca2+, fluorimetry); type: cell-based; details: HEK293, human recombinant GPR40 in HEK-293 cells, control 100 μM linoleic acid
Protocol: (§1) Select compounds were tested in a functional GRP40 assay as described in Briscoe, C. P. et al. (Brit. J. Pharmacol., (2006), 148: 619-628) to determine agonist/antagonist activity. […] Using a HEK-293 cell line transiently transduced to express GPR40, the agonist/antagonist activity of select compounds has been assessed.

[4] = target: FFA1 (h) (GPR40) (Homo sapiens (Human), UniProt O14842); assay: GPR40 functional assay, antagonist effect (intracellular Ca2+, fluorimetry); type: cell-based; details: stimulus linoleic acid 20000 nM; for inhibition at 10 µM: HEK293, human recombinant GPR40 in HEK-293 cells
Protocol: as §1

[5] = 0.3 nM His tagged PD-L1, 2.5 nM biotinylated Fc-PD-1, readings of 0.064 nM are equal to or less than 0.064 nM
[6] = 0.5 nM His tagged PD-L1 and 0.5 nM FLAG tagged PD-L1, Table 4A
[7] = 1st replicate, read-out: % of control agonist response, 1st
[8] = 2nd replicate, read-out: % of control agonist response, 2nd
[9] = mean, read-out: % of control agonist response, Mean
[10] = 1st replicate, read-out: % inhibition of control agonist response, 1st
[11] = 2nd replicate, read-out: % inhibition of control agonist response, 2nd
[12] = mean, read-out: % inhibition of control agonist response, Mean
[13] = 0.3 nM His tagged PD-L1, 2.5 nM biotinylated Fc-PD-1, Table 3B
[14] = 0.5 nM His tagged PD-L1 and 0.5 nM FLAG tagged PD-L1, Table 4B

Sequence of FFA1 (h) (GRP40) (O14842 whole entry): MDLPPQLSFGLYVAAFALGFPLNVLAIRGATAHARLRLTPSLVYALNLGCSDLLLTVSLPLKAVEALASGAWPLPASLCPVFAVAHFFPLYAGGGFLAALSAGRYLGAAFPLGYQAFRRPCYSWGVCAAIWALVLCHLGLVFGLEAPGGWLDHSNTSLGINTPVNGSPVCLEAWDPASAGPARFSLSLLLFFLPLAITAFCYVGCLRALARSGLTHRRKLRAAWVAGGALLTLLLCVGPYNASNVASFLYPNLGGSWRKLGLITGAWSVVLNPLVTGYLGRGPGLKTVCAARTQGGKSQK
Sequence of FFA1 (h) (GPR40) (O14842 whole entry): as above
Sequence of PD-1/PD-L1 (Q9NZQ7 19-238): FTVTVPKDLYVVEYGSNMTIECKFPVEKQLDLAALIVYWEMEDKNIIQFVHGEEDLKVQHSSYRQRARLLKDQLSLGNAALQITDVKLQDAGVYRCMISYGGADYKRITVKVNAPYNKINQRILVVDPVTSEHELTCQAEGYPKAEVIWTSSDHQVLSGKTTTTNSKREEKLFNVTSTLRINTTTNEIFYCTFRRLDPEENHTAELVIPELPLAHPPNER
Sequence of PD-L1 (Q9NZQ7 19-238): as above
Sequence of PD-L1 (Q9NZQ7 19-238): as above

| activity at 10 µM [3, 7] | activity at 10 µM [3, 8] | activity at 10 µM [3, 9] | IC50 [1, 13] | AC50 [2, 14] | SMILES | also measured |
| --- | --- | --- | --- | --- | --- | --- |
| -0.6% | -1.9% | -1.3% |  |  | COc1nc(-c2cccc(-c3cccc4c3CC[C@@H]4Nc3nc(OC)c(CN4CC5(C(=O)O)CCC4CC5)nc3C(F)(F)F)c2Cl)ccc1CNC[C@@H]1CCC(=O)N1 [A-18, 2-((5-(((S)-4-(2-chloro-3-(6-methoxy-5-(((((S)-5-oxopyrrolidin-2-yl)methyl)amino)methyl)pyridin-2-yl)phenyl)-2,3-dihydro-1H-inden-1-yl)amino)-3-methoxy-6-(trifluoromethyl)pyrazin-2-yl)methyl)-2-azabicyclo[2.2.2]octane-4-carboxylic acid] | IC50 [1, 5]: ≤ 0.064 nM; AC50 [2, 6]: 15.7 nM; % inhibition of control agonist response, 1st ([4]; 10 μM, human recombinant GPR40 in HEK-293 cells, 1st replicate): 8.3%; % inhibition of control agonist response, 2nd ([4]; 10 μM, human recombinant GPR40 in HEK-293 cells, 2nd replicate): 17.4%; % inhibition of control agonist response, Mean ([4]; 10 μM, human recombinant GPR40 in HEK-293 cells, mean): 12.8% |
| 1.1% | 0.1% | 0.6% |  |  | COc1nc(-c2cccc(-c3cccc4c3CC[C@@H]4Nc3nc(OC)c(CNC4(C(=O)O)CC4)cc3C(F)(F)F)c2Cl)ccc1CNC[C@@H]1CCC(=O)N1 [A-41] | IC50 [1, 5]: ≤ 0.064 nM; AC50 [2, 6]: 7.6 nM; inhibition at 10 µM [4, 10]: 23.1%; inhibition at 10 µM [4, 11]: 13.1%; inhibition at 10 µM [4, 12]: 18.1% |
| -0.4% | -0.5% | -0.4% | 0.064 nM | 3.77 nM | COc1nc(-c2cccc(-c3cccc4c3CC[C@@H]4Oc3nc(OC)c(CNC4(C(=O)O)CC4)cc3C(F)(F)F)c2Cl)ccc1CNC[C@@H]1CCC(=O)N1 [B-36] | inhibition at 10 µM [4, 10]: 30.5%; inhibition at 10 µM [4, 11]: 17%; inhibition at 10 µM [4, 12]: 23.7% |
| -2% | -0.5% | -1.2% | 0.064 nM | 32.4 nM | COc1nc(-c2cccc(-c3cccc4c3CC[C@@H]4Oc3nc(OC)c(CN4CC5(C(=O)O)CCC4CC5)nc3C)c2Cl)ccc1CNC[C@@H]1CCC(=O)N1 [B-149] | inhibition at 10 µM [4, 10]: 8%; inhibition at 10 µM [4, 11]: 15%; inhibition at 10 µM [4, 12]: 11.5% |
|  |  |  | 0.251 nM | 28.5 nM | COc1nc(-c2cccc(-c3cccc4c3CC[C@@H]4Oc3nc(OC)c(CNCC(N)=O)cc3C(F)(F)F)c2Cl)ccc1CNC[C@@H]1CCC(=O)N1 [B-266] |  |
|  |  |  | 0.064 nM | 7.26 nM | COc1nc(-c2cccc(-c3cccc4c3CC[C@@H]4Oc3nc(OC)c(CNCCC(=O)O)cc3C(F)(F)F)c2Cl)ccc1CNC[C@@H]1CCC(=O)N1 [B-267] |  |
|  |  |  | 0.064 nM | 3.76 nM | COc1nc(-c2cccc(-c3cccc4c3CC[C@@H]4Oc3nc(OC)c(CN[C@H](C(=O)O)C4CC4)cc3C(F)(F)F)c2Cl)ccc1CNC[C@@H]1CCC(=O)N1 [B-268] |  |
|  |  |  | 0.064 nM | 6.13 nM | CC[C@H](NCc1cc(C(F)(F)F)c(O[C@H]2CCc3c(-c4cccc(-c5ccc(CNC[C@@H]6CCC(=O)N6)c(OC)n5)c4Cl)cccc32)nc1OC)C(=O)O [B-269] |  |
|  |  |  | 0.064 nM | 4.76 nM | COc1nc(-c2cccc(-c3cccc4c3CC[C@@H]4Oc3nc(OC)c(CN[C@H](C(=O)O)C(C)C)cc3C(F)(F)F)c2Cl)ccc1CNC[C@@H]1CCC(=O)N1 [B-270] |  |
|  |  |  | 0.064 nM | 1.91 nM | COc1nc(-c2cccc(-c3cccc4c3CC[C@@H]4Oc3nc(OC)c(CN[C@@H](C)C(=O)O)cc3C(F)(F)F)c2Cl)ccc1CNC[C@@H]1CCC(=O)N1 [B-271] |  |
|  |  |  | 0.064 nM | 2.26 nM | COc1nc(-c2cccc(-c3cccc4c3CC[C@@H]4Oc3nc(OC)c(CNCC(=O)O)cc3C(F)(F)F)c2Cl)ccc1CNC[C@@H]1CCC(=O)N1 [B-272] |  |
